In ChEMBL document CHEMBL1909046, “DrugMatrix in vitro pharmacology data”:
Where a SMILES comes first, the peptide text is derived from it. Bridges are numbered along the chain shown (N, C = ends). [ ]: non-standard residue; d: D form. The star is where a group is joined. Threoninol(2S,3R) = C[C@@H](O)[C@H](CO)N*

Experiments:
[1] = DRUGMATRIX: Sodium/nucleoside co-transporter radioligand binding (ligand: nitrobenzylthioinosine); type: cell membranes, Cavia porcellus, Dunkin-Hartley, Cerebral cortex, Membrane; conditions: Not Active = under 50% inhibition at 10 µM
[2] = biological target: Beta-3 adrenergic receptor (Homo sapiens, UniProt P13945); test: DRUGMATRIX: Adrenergic beta3 radioligand binding (ligand: [125I] Cyanopindolol); type: cell membranes, Membrane; conditions: hek293; Not Active = under 50% inhibition at 10 µM
Sequence of Beta-3 adrenergic receptor (P13945 whole entry): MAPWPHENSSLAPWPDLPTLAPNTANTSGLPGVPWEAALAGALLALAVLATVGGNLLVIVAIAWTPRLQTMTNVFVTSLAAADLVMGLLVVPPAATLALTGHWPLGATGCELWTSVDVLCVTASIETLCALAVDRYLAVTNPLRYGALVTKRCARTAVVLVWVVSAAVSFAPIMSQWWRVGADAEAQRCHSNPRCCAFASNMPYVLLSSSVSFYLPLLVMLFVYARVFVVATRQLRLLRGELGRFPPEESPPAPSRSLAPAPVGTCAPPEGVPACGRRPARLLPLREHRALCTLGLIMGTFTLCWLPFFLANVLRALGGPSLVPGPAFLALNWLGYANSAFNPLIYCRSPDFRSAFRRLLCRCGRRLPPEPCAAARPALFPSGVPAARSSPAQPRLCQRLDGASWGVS

[3] = DRUGMATRIX: ATPase, Na+/K+ enzyme inhibition (substrate: ATP); type: tissue-based, Sus scrofa, Heart; conditions: Not Active = under 50% inhibition at 10 µM
[4] = biological target: Vascular endothelial growth factor receptor 1 (Homo sapiens, UniProt P17948); type: cell-based; conditions: huvec; note: in other assays of this panel Not Active means under 50% inhibition at 10 µM
Sequence of Vascular endothelial growth factor receptor 1 (P17948 whole entry): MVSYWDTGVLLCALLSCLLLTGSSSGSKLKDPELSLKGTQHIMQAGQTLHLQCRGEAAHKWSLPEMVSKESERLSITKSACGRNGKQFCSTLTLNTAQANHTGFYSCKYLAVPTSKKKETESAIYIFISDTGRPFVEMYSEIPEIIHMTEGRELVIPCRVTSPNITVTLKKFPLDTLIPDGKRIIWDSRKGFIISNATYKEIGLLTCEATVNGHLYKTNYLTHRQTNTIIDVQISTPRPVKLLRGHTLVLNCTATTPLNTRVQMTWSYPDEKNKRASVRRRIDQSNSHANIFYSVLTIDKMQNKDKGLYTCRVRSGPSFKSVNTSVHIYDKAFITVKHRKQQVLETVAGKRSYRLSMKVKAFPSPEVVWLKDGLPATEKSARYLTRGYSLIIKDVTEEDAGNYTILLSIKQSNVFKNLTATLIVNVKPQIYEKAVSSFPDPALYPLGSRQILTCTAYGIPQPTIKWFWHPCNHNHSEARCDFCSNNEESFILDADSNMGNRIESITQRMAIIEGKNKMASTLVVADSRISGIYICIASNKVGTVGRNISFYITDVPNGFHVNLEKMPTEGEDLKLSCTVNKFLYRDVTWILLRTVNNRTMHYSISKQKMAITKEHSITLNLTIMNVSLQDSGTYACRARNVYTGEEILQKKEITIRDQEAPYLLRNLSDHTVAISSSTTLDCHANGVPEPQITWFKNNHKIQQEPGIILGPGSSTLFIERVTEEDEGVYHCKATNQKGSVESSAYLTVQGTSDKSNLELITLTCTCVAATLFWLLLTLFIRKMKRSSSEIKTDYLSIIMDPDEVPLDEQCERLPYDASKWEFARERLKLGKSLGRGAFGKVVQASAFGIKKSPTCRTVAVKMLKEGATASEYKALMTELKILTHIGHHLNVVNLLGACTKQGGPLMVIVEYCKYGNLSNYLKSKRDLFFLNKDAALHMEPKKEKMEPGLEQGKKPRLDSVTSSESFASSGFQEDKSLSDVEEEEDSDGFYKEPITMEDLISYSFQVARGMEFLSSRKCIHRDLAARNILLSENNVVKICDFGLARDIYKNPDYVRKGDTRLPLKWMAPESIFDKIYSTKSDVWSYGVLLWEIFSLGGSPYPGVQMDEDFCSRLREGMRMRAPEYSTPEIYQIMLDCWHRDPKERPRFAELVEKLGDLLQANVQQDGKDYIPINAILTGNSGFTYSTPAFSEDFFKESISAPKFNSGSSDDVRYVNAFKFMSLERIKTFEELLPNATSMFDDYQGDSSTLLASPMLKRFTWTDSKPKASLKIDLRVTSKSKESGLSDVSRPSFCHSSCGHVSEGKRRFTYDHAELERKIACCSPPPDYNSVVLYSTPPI

[5] = biological target: T1, Amine oxidase [flavin-containing] A (Homo sapiens, UniProt P21397); test: DRUGMATRIX: Monoamine Oxidase MAO-A enzyme inhibition (substrate: Kynuramine); parameters: species or system BTI-TN-5B1-4; conditions: Not Active = under 50% inhibition at 10 µM
T1 sequence (P21397 whole entry): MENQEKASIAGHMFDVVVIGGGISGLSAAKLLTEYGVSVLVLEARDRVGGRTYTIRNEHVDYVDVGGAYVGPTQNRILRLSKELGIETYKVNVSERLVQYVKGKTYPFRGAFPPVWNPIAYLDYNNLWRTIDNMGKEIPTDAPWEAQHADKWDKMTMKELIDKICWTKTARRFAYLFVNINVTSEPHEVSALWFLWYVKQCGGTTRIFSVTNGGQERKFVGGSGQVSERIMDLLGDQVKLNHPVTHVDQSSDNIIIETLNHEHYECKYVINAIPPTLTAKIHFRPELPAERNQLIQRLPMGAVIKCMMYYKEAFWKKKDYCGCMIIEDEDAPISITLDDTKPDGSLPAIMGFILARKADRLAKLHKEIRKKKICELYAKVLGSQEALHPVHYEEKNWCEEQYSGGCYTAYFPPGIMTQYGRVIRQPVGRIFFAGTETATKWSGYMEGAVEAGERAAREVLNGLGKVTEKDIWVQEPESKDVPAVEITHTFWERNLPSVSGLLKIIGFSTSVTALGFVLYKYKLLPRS

[6] = biological target: T2, Muscarinic acetylcholine receptor M2 (Homo sapiens, UniProt P08172); type: cell membranes, CHO-K1, Membrane; conditions: cho-k1; note: in other assays of this panel Not Active means under 50% inhibition at 10 µM
T2 sequence (P08172 whole entry): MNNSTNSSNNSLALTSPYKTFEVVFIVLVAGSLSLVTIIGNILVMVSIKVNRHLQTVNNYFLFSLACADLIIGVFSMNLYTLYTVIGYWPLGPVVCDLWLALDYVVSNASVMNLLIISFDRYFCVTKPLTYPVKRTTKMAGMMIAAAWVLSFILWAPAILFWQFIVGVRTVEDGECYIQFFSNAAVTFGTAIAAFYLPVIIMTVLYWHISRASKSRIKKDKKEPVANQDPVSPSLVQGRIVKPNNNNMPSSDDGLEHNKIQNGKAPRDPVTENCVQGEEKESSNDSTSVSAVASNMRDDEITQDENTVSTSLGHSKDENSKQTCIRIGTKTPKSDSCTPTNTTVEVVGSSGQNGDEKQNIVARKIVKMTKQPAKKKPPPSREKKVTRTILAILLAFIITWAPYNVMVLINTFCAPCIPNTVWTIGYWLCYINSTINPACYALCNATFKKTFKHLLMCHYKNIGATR

[7] = biological target: Delta-type opioid receptor (Homo sapiens, UniProt P41143); type: cell membranes, HEK293, Membrane; conditions: hek293; note: in other assays of this panel Not Active means under 50% inhibition at 10 µM
Sequence of Delta-type opioid receptor (P41143 whole entry): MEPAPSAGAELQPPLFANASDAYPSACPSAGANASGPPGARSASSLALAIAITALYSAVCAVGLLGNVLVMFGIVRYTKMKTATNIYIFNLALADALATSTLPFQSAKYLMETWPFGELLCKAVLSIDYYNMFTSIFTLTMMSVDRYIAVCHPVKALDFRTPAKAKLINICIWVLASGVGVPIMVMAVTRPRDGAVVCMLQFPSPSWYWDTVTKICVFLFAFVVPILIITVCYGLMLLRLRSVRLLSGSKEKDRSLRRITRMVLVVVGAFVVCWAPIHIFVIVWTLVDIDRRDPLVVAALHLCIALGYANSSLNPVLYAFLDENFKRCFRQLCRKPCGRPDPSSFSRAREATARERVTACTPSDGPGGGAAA

[8] = DRUGMATRIX: Phosphodiesterase PDE3 enzyme inhibition (substrate: [3H]cAMP + cAMP); type: tissue-based, Homo sapiens; conditions: platelet; Not Active = under 50% inhibition at 10 µM

Structure (SMILES)	IC50 [1]	Ki [1]	IC50 [2]	IC50 [3]	Ki [3]	IC50 [4]	IC50 ([5]; bti-tn-5b1-4)	IC50 [6]	IC50 [7]	IC50 [8]	Ki [8]	IC50 ([5]; read-out: IC50) [µM]	Ki [2]	Ki [4]	Ki ([5]; bti-tn-5b1-4)	Ki [6]	Ki [7]
COc1ccccc1C(=O)N1CCC(Cc2ccccc2)CC1	Not Active	Not Active	Not Active	Not Active	Not Active	Not Active	Not Active	Not Active	Not Active	Not Active	Not Active	–	–	–	–	–	–
Cc1ccccc1C(=O)N1CCC(Cc2ccccc2)CC1	Not Active	Not Active	Not Active	Not Active	Not Active	Not Active	Not Active	Not Active	Not Active	Not Active	Not Active	–	–	–	–	–	–
O=C1CC[C@H](N2C(=O)c3ccccc3C2=O)C(=O)N1	Not Active	Not Active	Not Active	Not Active	Not Active	Not Active	Not Active	Not Active	Not Active	Not Active	Not Active	–	–	–	–	–	–
N=C(Nc1ccccc1)Nc1ccccc1	Not Active	Not Active	Not Active	Not Active	Not Active	Not Active	Not Active	Not Active	Not Active	Not Active	Not Active	–	–	–	–	–	–
C[C@@H](O)[C@H](CO)NC(=O)[C@@H]1CSSC[C@H](NC(=O)[C@H](N)Cc2ccccc2)C(=O)N[C@@H](Cc2ccccc2)C(=O)N[C@H](Cc2c[nH]c3ccccc23)C(=O)N[C@@H](CCCCN)C(=O)N[C@@H]([C@@H](C)O)C(=O)N1 (H-[dF]CF[dW]KTC-{Threoninol(2S,3R)}; disulfide 2-7)	Not Active	Not Active	Not Active	Not Active	Not Active	Not Active	Not Active	Not Active	Not Active	Not Active	Not Active	–	–	–	–	–	–
S=C=Nc1cccc2ccccc12 [1-NAPHTHYLISOTHIOCYANATE]	Not Active	Not Active	Not Active	Not Active	Not Active	Not Active	–	Not Active	Not Active	Not Active	Not Active	22.4	–	–	–	–	–
C[C@](O)(CS(=O)(=O)c1ccc(F)cc1)C(=O)Nc1ccc(C#N)c(C(F)(F)F)c1 [(R)-BICALUTAMIDE]	Not Active	Not Active	Not Active	Not Active	Not Active	Not Active	Not Active	Not Active	Not Active	Not Active	Not Active	–	–	–	–	–	–
CCCC(=O)Nc1ccc(OCC(O)CNC(C)C)c(C(C)=O)c1 (centres undefined) [ACEBUTOLOL]	Not Active	Not Active	Not Active	Not Active	Not Active	Not Active	Not Active	Not Active	Not Active	Not Active	Not Active	–	–	–	–	–	–
CC(=O)Nc1ccc(O)cc1 [ACETAMINOPHEN]	Not Active	Not Active	Not Active	Not Active	Not Active	Not Active	Not Active	Not Active	Not Active	Not Active	Not Active	–	–	–	–	–	–
COc1cc2c(c3oc(=O)c4c(c13)CCC4=O)[C@@H]1C=CO[C@@H]1O2 [AFLATOXIN]	Not Active	Not Active	Not Active	Not Active	Not Active	Not Active	Not Active	Not Active	Not Active	Not Active	Not Active	–	Not Active	Not Active	Not Active	Not Active	Not Active
N=C(N)NC(=O)c1nc(Cl)c(N)nc1N [AMILORIDE]	Not Active	Not Active	Not Active	Not Active	Not Active	Not Active	–	Not Active	Not Active	Not Active	Not Active	3.91	–	–	–	–	–
Cc1cc(=O)n(-c2ccccc2)n1C [ANTIPYRINE]	Not Active	Not Active	Not Active	Not Active	Not Active	Not Active	Not Active	Not Active	Not Active	Not Active	Not Active	–	–	–	–	–	–
CN1C(=O)COc2c(C(=O)NC3CN4CCC3CC4)cc(Cl)cc21 (centres undefined) [AZASETRON]	Not Active	Not Active	Not Active	Not Active	Not Active	Not Active	Not Active	Not Active	Not Active	Not Active	Not Active	–	–	–	–	–	–
C[C@H]1C[C@H]2[C@@H]3CCC4=CC(=O)C=C[C@]4(C)[C@@]3(Cl)[C@@H](O)C[C@]2(C)[C@@]1(O)C(=O)CO [BECLOMETHASONE]	Not Active	Not Active	Not Active	Not Active	Not Active	Not Active	Not Active	Not Active	Not Active	Not Active	Not Active	–	–	–	–	–	–
CCOC(=O)[C@H](CCc1ccccc1)N[C@H]1CCc2ccccc2N(CC(=O)O)C1=O [BENAZEPRIL]	Not Active	Not Active	Not Active	Not Active	Not Active	Not Active	Not Active	Not Active	Not Active	Not Active	Not Active	–	–	–	–	–	–
Nc1c(CC(=O)O)cccc1C(=O)c1ccc(Br)cc1 [BROMFENAC]	Not Active	Not Active	Not Active	Not Active	Not Active	Not Active	Not Active	Not Active	Not Active	Not Active	Not Active	–	–	–	–	–	–
CCCCN1CCCCC1C(=O)Nc1c(C)cccc1C.Cl (centres undefined) [BUPIVACAINE HYDROCHLORIDE]	Not Active	Not Active	Not Active	Not Active	Not Active	Not Active	Not Active	Not Active	Not Active	Not Active	Not Active	–	–	–	–	–	–
O=C1CC2(CCCC2)CC(=O)N1CCCCN1CCN(c2ncccn2)CC1 [BUSPIRONE]	Not Active	Not Active	Not Active	Not Active	Not Active	Not Active	Not Active	Not Active	Not Active	Not Active	Not Active	–	–	–	–	–	–
C[C@@]12C(=O)OC(=O)[C@]1(C)[C@H]1CC[C@@H]2O1 [CANTHARIDIN]	Not Active	Not Active	Not Active	Not Active	Not Active	Not Active	Not Active	Not Active	Not Active	Not Active	Not Active	–	–	–	–	–	–
O=NN(CCCl)C(=O)NCCCl [CARMUSTINE]	Not Active	Not Active	Not Active	Not Active	Not Active	Not Active	Not Active	Not Active	Not Active	Not Active	Not Active	–	–	–	–	–	–
COc1ccc2cc([C@H](C)C(=O)O)ccc2c1 [NAPROXEN]	Not Active	Not Active	Not Active	Not Active	Not Active	Not Active	Not Active	Not Active	Not Active	–	–	–	–	–	–	–	–
OC(CCN1CCCCC1)(c1ccccc1)C1CCCCC1 (centres undefined) [TRIHEXYPHENIDYL]	Not Active	Not Active	Not Active	Not Active	Not Active	Not Active	Not Active	–	Not Active	Not Active	Not Active	–	–	–	–	–	–
